Data reported in patent publication US10538487B2, “Sulfonylureas and related compounds and use of same” (priority 2015, dated 2020).
Like-named read-outs stand apart in the source and are kept apart here.

Key:
NLRP3 inflammasome [1] = target: NLRP3 inflammasome (Homo sapiens, UniProt Q96P20); assay: Inhibition of IL-1β release, NLRP3 inflammasome activation assay in HMDM; type: cell-based
Outline: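 Primary human monocyte-derived macrophages from CD14+ buffy-coat monocytes, seeded at 1×10^5/ml. Compound added in serum-free medium 30 min before NLRP3 stimulation (ATP, nigericin, LeuLeu-OMe or MSU). Cytokine in supernatants measured by ELISA or AlphaLISA; cell death by LDH release relative to full lysis.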

NLRP3 inflammasome [2] = target: NLRP3 inflammasome (Mus musculus, UniProt Q8R4B8); assay: Inhibition of IL-1β release, NLRP3 inflammasome activation assay in BMDM; type: cell-based
NLRP3 inflammasome (Mus musculus, UniProt Q8R4B8), sequence (Q8R4B8 whole entry): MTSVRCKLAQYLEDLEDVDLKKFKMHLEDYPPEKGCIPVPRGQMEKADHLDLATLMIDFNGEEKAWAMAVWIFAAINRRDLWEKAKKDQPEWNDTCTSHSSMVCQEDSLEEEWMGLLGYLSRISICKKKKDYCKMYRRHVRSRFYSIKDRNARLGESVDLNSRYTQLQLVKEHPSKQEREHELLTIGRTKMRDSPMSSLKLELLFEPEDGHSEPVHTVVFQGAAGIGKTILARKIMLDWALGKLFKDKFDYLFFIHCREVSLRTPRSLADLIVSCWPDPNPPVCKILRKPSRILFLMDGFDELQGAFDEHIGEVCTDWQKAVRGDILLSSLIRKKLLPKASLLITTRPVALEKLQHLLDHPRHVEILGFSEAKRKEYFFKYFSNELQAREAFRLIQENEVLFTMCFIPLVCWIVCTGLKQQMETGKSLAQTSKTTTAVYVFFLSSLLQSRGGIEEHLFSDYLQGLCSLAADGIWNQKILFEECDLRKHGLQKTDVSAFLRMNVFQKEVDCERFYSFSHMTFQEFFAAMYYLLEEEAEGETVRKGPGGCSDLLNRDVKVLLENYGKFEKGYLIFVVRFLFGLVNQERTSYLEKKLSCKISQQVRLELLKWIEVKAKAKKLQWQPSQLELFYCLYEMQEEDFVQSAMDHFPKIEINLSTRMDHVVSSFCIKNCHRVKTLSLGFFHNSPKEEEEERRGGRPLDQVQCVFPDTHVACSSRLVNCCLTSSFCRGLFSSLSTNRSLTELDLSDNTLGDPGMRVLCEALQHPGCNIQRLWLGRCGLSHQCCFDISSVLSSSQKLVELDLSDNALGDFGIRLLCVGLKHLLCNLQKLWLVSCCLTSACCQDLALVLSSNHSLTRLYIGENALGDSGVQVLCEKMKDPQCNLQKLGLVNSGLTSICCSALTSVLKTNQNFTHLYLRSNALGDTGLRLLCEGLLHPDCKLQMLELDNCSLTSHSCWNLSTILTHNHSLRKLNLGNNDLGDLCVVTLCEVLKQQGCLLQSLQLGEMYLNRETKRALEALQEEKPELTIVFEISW
Procedure: The following assays can be used to determine inhibitory activity of test compounds on the NLRP3 inflammasome using common stimuli such as adenosine triphosphate, nigericin, LeuLeu-OMe or monosodium urate crystals (MSU).
Mouse bone marrow-derived macrophages (BMDM) were derived from bone marrow progenitors isolated from the femurs and tibias of C57BL/6 mice.
BMDM are seeded at 1×10^5/ml. The following day the overnight medium is replaced and cells are stimulated with Ultrapure lipopolysaccharide from Escherichia coli K12 strain (InvivoGen) for 3 h. Medium is removed and replaced with serum free medium (SFM) containing test compound 30 min prior to NLRP3 stimulation. […] ATP can be sourced from Sigma Aldrich, nigericin and MSU from Invivogen and LeuLeu-Ome from Chem-Impex International.
For ELISA and cell death assays cells are seeded in 96 well plates. Supernatants are removed and analysed using ELISA kits according to the manufacturer's instructions (DuoSet® R&D Systems, ReadySetGo!® eBioscience, BD OptEIA™, or Perkin Elmer AlphaLISA®). Cell death is assessed by measurement of LDH release relative to a 100% cell lysis control using the CytoTox96® non-radioactive cytotoxicity assay (Promega).

[3] = inhibition of IL-1β release, class symbols, read-out: Avg. IL-1β IC50 HMDM
[4] = inhibition of IL-1β release, class symbols, read-out: Avg. IL-1β IC50 Murine BMDM
[5] = inhibition of IL-1β release, numeric bounds, read-out: Avg. IL-1β IC50 Murine BMDM
[6] = commercial compounds (Table 9), read-out: HMDM IC50 vs NLRP3
[7] = commercial compounds (Table 9), read-out: BMDM IC50 vs NLRP3
[8] = select compounds of the first aspect (Table 10), read-out: BMDM IC50 vs NLRP3

NLRP3 inflammasome (Homo sapiens, UniProt Q96P20), sequence (Q96P20 whole entry): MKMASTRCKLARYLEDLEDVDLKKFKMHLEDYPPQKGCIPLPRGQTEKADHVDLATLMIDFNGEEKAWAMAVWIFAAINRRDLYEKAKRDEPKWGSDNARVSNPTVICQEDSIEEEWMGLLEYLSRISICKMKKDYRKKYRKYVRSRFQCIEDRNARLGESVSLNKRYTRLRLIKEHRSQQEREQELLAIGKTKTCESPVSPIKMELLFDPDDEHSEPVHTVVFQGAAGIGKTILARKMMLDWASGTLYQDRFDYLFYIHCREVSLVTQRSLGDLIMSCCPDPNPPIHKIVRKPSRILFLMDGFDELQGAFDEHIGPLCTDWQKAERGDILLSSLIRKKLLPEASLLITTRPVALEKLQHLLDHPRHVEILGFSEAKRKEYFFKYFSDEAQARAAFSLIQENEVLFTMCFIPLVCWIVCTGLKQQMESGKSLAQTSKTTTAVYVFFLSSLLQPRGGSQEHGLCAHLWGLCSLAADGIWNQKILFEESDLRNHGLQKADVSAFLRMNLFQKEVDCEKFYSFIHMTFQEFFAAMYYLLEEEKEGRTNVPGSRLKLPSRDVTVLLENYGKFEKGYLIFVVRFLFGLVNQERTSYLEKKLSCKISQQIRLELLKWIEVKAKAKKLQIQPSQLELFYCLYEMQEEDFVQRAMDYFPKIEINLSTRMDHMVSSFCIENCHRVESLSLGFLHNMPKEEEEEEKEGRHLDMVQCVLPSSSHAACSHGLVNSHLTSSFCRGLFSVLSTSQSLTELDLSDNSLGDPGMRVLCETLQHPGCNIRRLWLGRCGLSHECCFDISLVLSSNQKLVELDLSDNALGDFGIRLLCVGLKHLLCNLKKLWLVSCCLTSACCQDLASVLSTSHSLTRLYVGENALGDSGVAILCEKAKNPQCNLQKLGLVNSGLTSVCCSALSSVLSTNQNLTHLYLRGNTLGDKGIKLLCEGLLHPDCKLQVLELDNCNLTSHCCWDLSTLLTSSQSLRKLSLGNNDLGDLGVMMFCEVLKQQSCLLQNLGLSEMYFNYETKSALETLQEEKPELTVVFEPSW

## COc1ccc(Cl)cc1C(=O)NCCc1ccc(S(=O)(=O)NC(=O)Nc2c3c(cc4c2CCC4)CCC3)cc1
NLRP3 inflammasome [1]; [3]
  IC50: < 1 µM
NLRP3 inflammasome [2]; [4]
  IC50: < 1 µM

## CCC1=C(C)CN(C(=O)NCCc2ccc(S(=O)(=O)NC(=O)Nc3c4c(cc5c3CCC5)CCC4)cc2)C1=O [3-Ethyl-N-(4-(N-((1,2,3,5,6,7-hexahydro-s-indacen-4-yl)carbamoyl)sulfamoyl)phenethyl)-4-methyl-2-oxo-2,5-dihydro-1H-pyrrole-1-carboxamide]
NLRP3 inflammasome [1]; [3]
  IC50: < 1 µM
NLRP3 inflammasome [2]; [4]
  IC50: < 1 µM

## COc1ccc2c(c1)C(=O)N(CCc1ccc(S(N)(=O)=O)cc1)C(=O)C2(C)C [4-(2-(7-methoxy-4,4-dimethyl-1,3-dioxo-3,4-dihydroisoquinolin-2(1H)-yl)ethyl)benzenesulfonamide, reference compound]
NLRP3 inflammasome [1]; inhibition of IL-1β release, numeric bounds, read-out: Avg. IL-1β IC50 HMDM
  IC50: > 200 µM
NLRP3 inflammasome [2]; [5]
  IC50: > 10 µM

## COc1ccc2c(c1NC(=O)NS(=O)(=O)c1cc(C(C)(C)O)co1)CCC2 [4-(2-hydroxypropan-2-yl)-N-((5-methoxy-2,3-dihydro-1H-inden-4-yl)carbamoyl)furan-2-sulfonamide]
NLRP3 inflammasome [1]; [3]
  IC50: < 1 µM
NLRP3 inflammasome [2]; [4]
  IC50: < 1 µM

## Cc1c2c(c(NC(=O)NS(=O)(=O)c3cc(C(C)(C)O)co3)c3c1CCC3)CCC2 [4-(2-hydroxypropan-2-yl)-N-((8-methyl-1,2,3,5,6,7-hexahydro-s-indacen-4-yl)carbamoyl)furan-2-sulfonamide]
NLRP3 inflammasome [1]; [3]
  IC50: < 0.1 µM
NLRP3 inflammasome [2]; [4]
  IC50: < 0.1 µM

## CC(=O)c1ccc(S(=O)(=O)NC(=O)Nc2c3c(cc4c2CCC4)CCC3)cc1 [4-Acetyl-N-((1,2,3,5,6,7-hexahydro-s-indacen-4-yl)carbamoyl)benzenesulfonamide]
NLRP3 inflammasome [1]; [3]
  IC50: < 1 µM
NLRP3 inflammasome [2]; [4]
  IC50: < 0.1 µM

## Nc1ccc(S(=O)(=O)NC(=O)Nc2c3c(cc4c2CCC4)CCC3)cc1 [4-Amino-N-((1,2,3,5,6,7-hexahydro-s-indacen-4-yl)carbamoyl)benzenesulfonamide]
NLRP3 inflammasome [1]; [3]
  IC50: < 1 µM
NLRP3 inflammasome [2]; [4]
  IC50: < 0.1 µM

## CC(=O)c1ccc(S(=O)(=O)NC(=O)NC2CCCCC2)cc1 [Acetohexamide, reference compound]
NLRP3 inflammasome [1]; [6]
  IC50: > 200 µM
NLRP3 inflammasome [2]; [7]
  IC50: > 200 µM

## CCCNC(=O)NS(=O)(=O)c1ccc(Cl)cc1 [Chlorpropamide, reference compound]
NLRP3 inflammasome [1]; [6]
  IC50: > 200 µM
NLRP3 inflammasome [2]; [7]
  IC50: > 200 µM

## Cc1ccc(S(=O)(=O)NC(=O)NN2CC3CCCC3C2)cc1 (centres unmarked) [Gliclazide, reference compound]
NLRP3 inflammasome [1]; [6]
  IC50: > 200 µM
NLRP3 inflammasome [2]; [7]
  IC50: > 200 µM

## Cc1cnc(C(=O)NCCc2ccc(S(=O)(=O)NC(=O)NC3CCCCC3)cc2)cn1 [Glipizide, reference compound]
NLRP3 inflammasome [1]; [6]
  IC50: > 200 µM
NLRP3 inflammasome [2]; [7]
  IC50: > 200 µM

## COc1ccc2c(c1)C(=O)N(CCc1ccc(S(N)(=O)=O)cc1)C(=O)C2(C)C [Gliquidone precursor, 4-(2-(7-Methoxy-4,4-dimethyl-1,3-dioxo-3,4-dihydroisoquinolin-2(1H)-yl)ethyl)benzenesulfonamide, reference compound]
NLRP3 inflammasome [1]; [6]
  IC50: > 200 µM
NLRP3 inflammasome [2]; [7]
  IC50: > 10 µM

## COc1cccc(S(=O)(=O)NC(=O)Nc2c3c(cc4c2CCC4)CCC3)c1 [N-(1,2,3,5,6,7-hexahydros-indacen-4-ylcarbamoyl)-3-methoxybenzenesulfonamide]
NLRP3 inflammasome [1]; [3]
  IC50: < 0.1 µM
NLRP3 inflammasome [2]; [4]
  IC50: < 0.1 µM

## O=C(CCCC[C@@H]1SC[C@@H]2NC(=O)N[C@@H]21)NCCCn1cc(CCC(=O)Nc2cccc(S(=O)(=O)NC(=O)Nc3c4c(cc5c3CCC5)CCC4)c2)nn1 [N-(3-(4-(3-((3-(N-((1,2,3,5,6,7-hexahydro-s-indacen-4-yl)carbamoyl)sulfamoyl)phenyl)amino)-3-oxopropyl)-1H-1,2,3-triazol-1-yl)propyl)-5-((3aS,4S,6aR)-2-oxohexahydro-1H-thieno[3,4-d]imidazol-4-yl)pentanamide]
NLRP3 inflammasome [1]; [3]
  IC50: < 10 µM
NLRP3 inflammasome [2]; [4]
  IC50: < 10 µM

## Cc1cc(C(=O)NCCc2ccc(S(=O)(=O)NC(=O)Nc3c4c(cc5c3CCC5)CCC4)cc2)no1 [N-(4-(N-((1,2,3,5,6,7-hexahydro-s-indacen-4-yl)carbamoyl)sulfamoyl)phenethyl)-5-methylisoxazole-3-carboxamide]
NLRP3 inflammasome [1]; [3]
  IC50: < 1 µM
NLRP3 inflammasome [2]; [4]
  IC50: < 1 µM

## CC(C)(O)c1coc(S(=O)(=O)NC(=O)Nc2cccc3c2OCC3)c1 [N-((2,3-dihydrobenzofuran-7-yl)carbamoyl)-4-(2-hydroxypropan-2-yl)furan-2-sulfonamide]
NLRP3 inflammasome [2]; [4]
  IC50: < 50 µM

## COc1ccc(OC)c(NC(=O)NS(=O)(=O)c2cc(C(C)(C)O)co2)c1 [N-((2,5-dimethoxyphenyl)carbamoyl)-4-(2-hydroxypropan-2-yl)furan-2-sulfonamide]
NLRP3 inflammasome [2]; [4]
  IC50: < 10 µM

## CC(C)n1ccc(S(=O)(=O)NC(=O)Nc2nc(C(C)(C)C)cc(C(C)(C)C)n2)n1 [N-((4,6-di-tert-butylpyrimidin-2-yl)carbamoyl)-1-isopropyl-1H-pyrazole-3-sulfonamide]
NLRP3 inflammasome [2]; [5]
  IC50: > 10 µM

## Cc1cc(C)nc(NC(=O)NS(=O)(=O)c2ccn(C(C)C)n2)n1 [N-((4,6-dimethylpyrimidin-2-yl)carbamoyl)-1-isopropyl-1H-pyrazole-3-sulfonamide]
NLRP3 inflammasome [2]; [5]
  IC50: > 10 µM

## CC(C)(O)c1coc(S(=O)(=O)NC(=O)Nc2c3c(c(Br)c4c2OCC4)CCC3)c1 [N-((4-bromo-3,5,6,7-tetrahydro-2H-indeno[5,6-b]furan-8-yl)carbamoyl)-4-(2-hydroxypropan-2-yl)furan-2-sulfonamide]
NLRP3 inflammasome [2]; [4]
  IC50: < 0.1 µM

## CC(C)(O)c1coc(S(=O)(=O)NC(=O)Nc2c(C3CC3)cc(Cl)cc2C2CC2)c1 [N-((4-chloro-2,6-dicyclopropylphenyl)carbamoyl)-4-(2-hydroxypropan-2-yl)furan-2-sulfonamide]
NLRP3 inflammasome [2]; [4]
  IC50: < 0.1 µM

## CCc1noc2ncc(S(=O)(=O)NC(=O)Nc3c(C(C)C)cc(Cl)cc3C(C)C)cc12 [N-((4-chloro-2,6-diisopropylphenyl)carbamoyl)-3-ethylisoxazolo[5,4-b]pyridine-5-sulfonamide]
NLRP3 inflammasome [2]; [4]
  IC50: < 10 µM

## CC(C)c1cc(Cl)cc(C(C)C)c1NC(=O)NS(=O)(=O)c1ccc2c(c1)CCCC2 [N-((4-chloro-2,6-diisopropylphenyl)carbamoyl)-5,6,7,8-tetrahydronaphthalene-2-sulfonamide]
NLRP3 inflammasome [2]; [4]
  IC50: < 0.1 µM

## COc1ccc2cc(S(=O)(=O)NC(=O)Nc3c(C(C)C)cc(Cl)cc3C(C)C)ccc2c1 [N-((4-chloro-2,6-diisopropylphenyl)carbamoyl)-6-methoxynaphthalene-2-sulfonamide]
NLRP3 inflammasome [2]; [4]
  IC50: < 0.1 µM

## CC(C)c1cc(Cl)cc(C(C)C)c1NC(=O)NS(=O)(=O)c1cccc2nccnc12 [N-((4-chloro-2,6-diisopropylphenyl)carbamoyl)quinoxaline-5-sulfonamide]
NLRP3 inflammasome [2]; [4]
  IC50: < 0.1 µM

## CC(C)c1cc(Cl)cc(C(C)C)c1NC(=O)NS(=O)(=O)c1cnc2ccsc2c1 [N-((4-chloro-2,6-diisopropylphenyl)carbamoyl)thieno[3,2-b]pyridine-6-sulfonamide]
NLRP3 inflammasome [2]; [4]
  IC50: < 1 µM

## Cc1cc(Cl)cc(C)c1NC(=O)NS(=O)(=O)c1cc(C(C)(C)O)co1 [N-((4-chloro-2,6-dimethylphenyl)carbamoyl)-4-(2-hydroxypropan-2-yl)furan-2-sulfonamide]
NLRP3 inflammasome [2]; [4]
  IC50: < 10 µM

## COc1cc(Cl)cc(C(F)(F)F)c1NC(=O)NS(=O)(=O)c1ccn(C(C)C)n1 [N-((4-chloro-2-methoxy-6-(trifluoromethyl)phenyl)carbamoyl)-1-isopropyl-1H-pyrazole-3-sulfonamide]
NLRP3 inflammasome [2]; [5]
  IC50: > 10 µM

## Cc1cc(Cl)cc(C(F)(F)F)c1NC(=O)NS(=O)(=O)c1cc(C(C)(C)O)co1 [N-((4-chloro-2-methyl-6-(trifluoromethyl)phenyl)carbamoyl)-4-(2-hydroxypropan-2-yl)furan-2-sulfonamide]
NLRP3 inflammasome [2]; [5]
  IC50: > 10 µM

## CC(C)(O)c1coc(S(=O)(=O)NC(=O)Nc2c(C3CC3)cc(Cl)c3c2CCC3)c1 [N-((7-chloro-5-cyclopropyl-2,3-dihydro-1H-inden-4-yl)carbamoyl)-4-(2-hydroxypropan-2-yl)furan-2-sulfonamide]
NLRP3 inflammasome [2]; [4]
  IC50: < 0.1 µM

## CC(C)(O)c1coc(S(=O)(=O)NC(=O)Nc2c3ccccc3cc3ccccc23)c1 [N-(anthracen-9-ylcarbamoyl)-4-(2-hydroxypropan-2-yl)furan-2-sulfonamide]
NLRP3 inflammasome [2]; [4]
  IC50: < 10 µM

## CC(C)(O)c1coc(S(=O)(=O)NC(=O)Nc2c3ccoc3cc3ccoc23)c1 [N-(benzo[1,2-b:4,5-b′]difuran-4-ylcarbamoyl)-4-(2-hydroxypropan-2-yl)furan-2-sulfonamide]
NLRP3 inflammasome [2]; [4]
  IC50: < 0.1 µM

## Cc1cnc(C(=O)NCCc2ccc(S(=O)(=O)NC(=O)Nc3c4c(cc5c3CCC5)CCC4)cc2)cn1 [drawing 359]
NLRP3 inflammasome [2]; [8]
  IC50: 0.32 µM

## O=C(Nc1c2c(cc3c1CCC3)CCC2)NS(=O)(=O)c1ccc([N+](=O)[O-])cc1 [drawing 368]
NLRP3 inflammasome [2]; [8]
  IC50: 0.043 µM

## CCOC(=O)c1coc(S(=O)(=O)NC(=O)Nc2c3c(cc4c2CCC4)CCC3)c1 [ethyl 5-(N-((1,2,3,5,6,7-hexahydro-s-indacen-4-yl)carbamoyl)sulfamoyl)furan-3-carboxylate]
NLRP3 inflammasome [2]; [4]
  IC50: < 1 µM
